Reference: patent US10336701B2, “Pyridin-2-one derivatives of formula (II) useful as EP3 receptor antagonists” (Janssen Pharmaceutica NV, priority 2017, dated 2019)

Assays:
Sprague Dawley rats = experiment: IV infused EP3 antagonists on circulating insulin and glucose in the sulprostone infusion IVGTT model; assay type: in vivo, rat; conditions: SD rats, IV bolus plus infusion at 7×Ki and 10×Ki (targeted)
From the text: Biological Example 3—IV Infused EP3 Antagonists on Circulating Insulin and Glucose in the Sulprostone Infusion IVGTT Model
Jugular vein and carotid artery cannulated male Sprague Dawley rats (˜250 g, available from Charles River) were housed one rat per suspended cage in a temperature-controlled room with 12-hour light/dark cycle. The rats were allowed ad libitum access to water and maintained on a regular diet. Animals were acclimated for minimum 5 days prior to the start of the experiment. Experimental procedures were carried out in accordance with institutional standards for animal care and were approved by the institute's animal care and use committee.
A blood sample for insulin and blood chemistry was collected at 20 min (t=−20) prior to the start of dosing with sulprostone and/or test compound (EP3 antagonist). […]
Blood samples from all animals were collected into Heparin treated tubes. Background was measured via a glucometer at the 0 and 2 min time points to ensure that the animal received the glucose bolus. Plasma insulin was measured via a Meso Scale Discovery metabolic assay (available from Meso Scale). Plasma glucose, free fatty acid (FFA), triglycerides, cholesterol and ketones were measured on an OLYMPUS AU400E chemistry analyzer. Observations on animal health were recorded throughout the procedure. […]

EP3 receptor [1] = target: T1, EP3 receptor (Homo sapiens, UniProt P43115); experiment: [3H]-PGE2 binding assay (EP3 competition binding); conditions: read-out: [3H]-PGE2 Binding Ki
T1 construct: purchased Millipore HTS092M
T1 sequence (P43115 1-390): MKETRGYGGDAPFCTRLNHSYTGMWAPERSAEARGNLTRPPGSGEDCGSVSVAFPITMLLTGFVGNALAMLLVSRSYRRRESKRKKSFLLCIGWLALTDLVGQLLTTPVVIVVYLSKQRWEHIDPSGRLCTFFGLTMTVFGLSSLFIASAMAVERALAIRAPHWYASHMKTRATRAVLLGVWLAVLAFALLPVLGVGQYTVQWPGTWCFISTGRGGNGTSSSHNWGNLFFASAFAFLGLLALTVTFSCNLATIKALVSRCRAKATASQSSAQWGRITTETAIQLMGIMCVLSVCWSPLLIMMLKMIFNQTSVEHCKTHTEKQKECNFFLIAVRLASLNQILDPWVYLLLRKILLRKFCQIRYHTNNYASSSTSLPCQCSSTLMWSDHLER
Summary of the method: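 Scintillation-bead competition binding with EP3 membranes (2 μg/well), 2 nM [3H]-PGE2, 0.1% DMSO, in 50 mM Tris, 10 mM MgCl2, 1 mM EDTA, pH 7.4.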

EP3 receptor [2] = target: T1, EP3 receptor; experiment: CHO cell cAMP assay (forskolin and sulprostone stimulated, HTRF); assay type: cell-based; conditions: CHO cells; sulprostone 700 nM (EC80) and FSK 2 μM (EC70), 37° C. for 30 minutes; read-out: CHO_cAMP IC50

Ki (EP3 receptor [1]) [nM] | IC50 (EP3 receptor [2]) [nM] | SMILES | reversal of suppression of glucose stimulate insulin secretion (GSIS) by sulprostone (Sprague Dawley rats)
 |  | CC(C)C(/C=C1\OC(=O)NC1=O)c1ccc(-c2ccc3cccc(F)c3c2)[nH]c1=O (racemic) [Compound #62, (Z)-5-(2-(6-(8-fluoronaphthalen-2-yl)-2-oxo-1,2-dihydropyridin-3-yl)-3-methylbutylidene)oxazolidine-2,4-dione] | reverse suppression of glucose stimulate insulin secretion (GSIS) by sulprostone
51 | 243 | CC(C)C(C(=O)NS(C)(=O)=O)c1ccc(-c2ccc3ccccc3c2)[nH]c1=O (stereo not drawn) [compound 221, 3-methyl-N-(methylsulfonyl)-2-(6-(naphthalen-2-yl)-2-oxo-1,2-dihydropyridin-3-yl)butanamide] | 
5 | 37 | CCn1ncc2c(F)cc(-c3ccc(C4CCCN(S(=O)(=O)C(C)C)C4)c(=O)[nH]3)cc21 (stereo not drawn) [compound 211, 6-(1-ethyl-4-fluoro-1H-indazol-6-yl)-3-(1-(isopropylsulfonyl)piperidin-3-yl)pyridin-2(1H)-one] | 
428 | 2140 | CC1(c2ccc(-c3ccc4ccccc4c3)[nH]c2=O)C(=O)Nc2nncn21 (stereo not drawn) [compound 152, 3-[5-methyl-6-oxo-5H, 6H, 7H-imidazo[2,1-c][1,2,4]triazol-5-yl]-6-(naphthalen-2-yl)-1,2-dihydropyridin-2-one] | 
28 | 736 | CC(C)C(NC(=O)NCCN(C)C)c1ccc(-c2ccc3cccc(F)c3c2)[nH]c1=O (stereo not drawn) [compound 266, 1-(2-(dimethylamino)ethyl)-3-(1-(6-(8-fluoronaphthalen-2-yl)-2-oxo-1,2-dihydropyridin-3-yl)-2-methylpropyl)urea] | 
> 10000 | > 20000 | O=c1[nH]c(-c2ccc3ccccc3c2)ccc1C1CCc2oncc2C1 (stereo not drawn) [compound 187, 6-(naphthalen-2-yl)-3-(4,5,6,7-tetrahydrobenzo[d]isoxazol-5-yl)pyridin-2(1H)-one] | 
53 | 385 | CC(C)C(Cc1ccc(-c2ccc3cccc(F)c3c2)[nH]c1=O)c1ncc[nH]1 (stereo not drawn) [compound 307, 3-(2-(1H-Imidazol-2-yl)-3-methylbutyl)-6-(8-fluoronaphthalen-2-yl)pyridin-2(1H)-one] | 
64 | 179 | CC1(c2ccc(-c3ccc4ccccc4c3)[nH]c2=O)CNC(=S)N1 (stereo not drawn) [compound 286, 4-[2-hydroxy-6-(naphthalen-2-yl)pyridin-3-yl]-4-methylimidazolidine-2-thione] | 
> 10000 | > 20000 | CCn1cc2ccc(-c3ccc(C(CC4OC(=O)NC4=O)C(C)C)c(=O)[nH]3)cc2n1 (stereo not drawn) [compound 120, 5-(2-(6-(2-ethyl-2H-indazol-6-yl)-2-oxo-1,2-dihydropyridin-3-yl)-3-methylbutyl)oxazolidine-2,4-dione] | 
27 | 115 | CCn1ncc2c(F)cc(-c3ccc(C(CN4CCN(S(C)(=O)=O)CC4)C(C)C)c(=O)[nH]3)cc21 (stereo not drawn) [Compound #109, 6-(1-ethyl-4-fluoro-1H-indazol-6-yl)-3-(3-methyl-1-(4-(methylsulfonyl)piperazin-1-yl)butan-2-yl)pyridin-2(1H)-one] | 
60 | 1330 | O=c1[nH]c(-c2ccc3ccccc3c2)ccc1C1CCOCC1 [compound 192, 6-(naphthalen-2-yl)-3-(tetrahydro-2H-pyran-4-yl)pyridin-2(1H)-one] | 
27 | 95 | CC(C)C(c1ccc(-c2ccc3cccc(F)c3c2)[nH]c1=O)n1cnc(N)n1 (stereo not drawn) [compound 161, 3-(1-(3-amino-1H-1,2,4-triazol-1-yl)-2-methylpropyl)-6-(8-fluoronaphthalen-2-yl)pyridin-2(1H)-one] | 
5620 | > 20000 | CCC(/C=C1/OC(=O)NC1=O)(CC)c1ccc(-c2ccc3c(c2)OC(C)(C)C=C3)[nH]c1=O [compound 28, 5-(2-(6-(2,2-dimethyl-2H-chromen-7-yl)-2-oxo-1,2-dihydropyridin-3-yl)-2-ethylbutylidene)oxazolidine-2,4-dione] | 
202 | 19200 | CC(C)C(/C=C1\OC(=O)NC1=O)c1ccc(-c2cc(F)c3cnn(C4CCCC4)c3c2)[nH]c1=O (stereo not drawn) [compound 124, (Z)-5-(2-(6-(1-cyclopentyl-4-fluoro-1H-indazol-6-yl)-2-oxo-1,2-dihydropyridin-3-yl)-3-methylbutylidene)oxazolidine-2,4-dione] | 
49 | 180 | CC1(c2ccc(-c3ccc4ccccc4c3)[nH]c2=O)CN/C(=N\C#N)N1 (stereo not drawn) [compound 283] | 
154 | 18000 | CCN1C(=O)COc2c(F)cc(-c3ccc(C(CN4CCS(=O)(=O)CC4)C(C)C)c(=O)[nH]3)cc21 (stereo not drawn) [Compound #128, 4-{2-[6-(4-ethyl-8-fluoro-3-oxo-2H-1,4-benzoxazin-6-yl)-2-oxo-1H-pyridin-3-yl]-3-methylbutyl},4-thiomorpholine-1,1-dione] | 
50 | 555 | CCn1ncc2c(C)cc(-c3ccc(C(/C=C4\OC(=O)NC4=O)C(C)C)c(=O)[nH]3)cc21 (stereo not drawn) [compound 106, (Z)-5-(2-(6-(1-ethyl-4-methyl-1H-indazol-6-yl)-2-oxo-1,2-dihydropyridin-3-yl)-3-methylbutylidene)oxazolidine-2,4-dione] | 
> 10000 | > 20000 | CC(C)C(CC1OC(=O)NC1=O)c1ccc(-c2cc(Cl)c3c(c2)ncn3C)[nH]c1=O (stereo not drawn) [compound 107, 5-(2-(6-(7-chloro-1-methyl-1H-benzo[d]imidazol-5-yl)-2-oxo-1,2-dihydropyridin-3-yl)-3-methylbutyl)oxazolidine-2,4-dione] | 
151 | 779 | CC1(c2ccc(-c3ccc4ccccc4c3)[nH]c2=O)Cn2cnnc2N1 (stereo not drawn) [compound 167, 3-[6-methyl-5H,6H,7H-imidazo[2,1-c][1,2,4]triazol-6-yl]-6-(naphthalen-2-yl)-1,2-dihydropyridin-2-one] | 
344 | 2740 | CC(C)C(CC(=O)Nc1nccs1)c1ccc(-c2ccc3cccc(F)c3c2)[nH]c1=O (stereo not drawn) [compound 254, 3-(6-(8-fluoronaphthalen-2-yl)-2-oxo-1,2-dihydropyridin-3-yl)-4-methyl-N-(thiazol-2-yl)pentanamide] | 
1350 | > 20000 | CCn1ncc2c(F)c(-c3ccc(C(/C=C4/OC(=O)NC4=O)(CC)CC)c(=O)[nH]3)ccc21 [compound 12, (E)-5-(2-ethyl-2-(6-(1-ethyl-4-fluoro-1H-indazol-5-yl)-2-oxo-1,2-dihydropyridin-3-yl)butylidene)oxazolidine-2,4-dione] | 
979 | 8300 | CCn1ncc2c(F)cc(-c3ccc(C4(O)CN(S(=O)(=O)C(C)C)C4)c(=O)[nH]3)cc21 [compound 298, 6-(1-ethyl-4-fluoro-1H-indazol-6-yl)-3-(3-hydroxy-1-(isopropylsulfonyl)azetidin-3-yl)pyridin-2(1H)-one] | 
12 | 66 | CC(C)C(Cc1ccc(-c2ccc3cccc(F)c3c2)[nH]c1=O)c1nnc[nH]1 (stereo not drawn) [compound 309, 6-(8-Fluoronaphthalen-2-yl)-3-(3-methyl-2-(4H-1,2,4-triazol-3-yl)butyl)pyridin-2(1H)-one] | 
